Drawing on patent US8404849B2, “Processes for producing modulators of cystic fibrosis transmembrane conductance regulator” (Vertex Pharmaceuticals, priority 2010, dated 2013), this text covers Emax and EC50 for three molecules.

The assay addresses T1, ΔF508-CFTR (Homo sapiens, UniProt P13569, DEL508-508).
T1 construct: expressed in transfected cells; host or cells: NIH3T3 mouse fibroblasts, stably expressing, cultured at 27 °C (temperature-corrected)
The assay is described as follows: Membrane potential optical assay for identification of ΔF508-CFTR potentiators (FLIPR III, forskolin activation). The conditions noted are these: for Emax: NIH3T3, 100% efficacy is the maximum response obtained with 4-methyl-2-(5-phenyl-1H-pyrazol-3-yl)phenol, ΔF508 CFTR NIH 3T3 cells; for EC50: temperature-corrected ΔF508 CFTR NIH 3T3 cells. The assay is classed as cell-based. The source says:
The assay utilizes fluorescent voltage sensing dyes to measure changes in membrane potential using a fluorescent plate reader (e.g., FLIPR III, Molecular Devices, Inc.) as a readout for increase in functional ΔF508-CFTR in NIH 3T3 cells. The driving force for the response is the creation of a chloride ion gradient in conjunction with channel activation by a single liquid addition step after the cells have previously been treated with compounds and subsequently loaded with a voltage sensing dye.
To identify potentiators of ΔF508-CFTR, a double-addition HTS assay format was developed. This HTS assay utilizes fluorescent voltage sensing dyes to measure changes in membrane potential on the FLIPR III as a measurement for increase in gating (conductance) of ΔF508 CFTR in temperature-corrected ΔF508 CFTR NIH 3T3 cells. The driving force for the response is a Cl^− ion gradient in conjunction with channel activation with forskolin in a single liquid addition step using a fluorescent plate reader such as FLIPR III after the cells have previously been treated with potentiator compounds (or DMSO vehicle control) and subsequently loaded with a redistribution dye.
Solutions • Bath Solution #1: (in mM) NaCl 160, KCl 4.5, CaCl2 2, MgCl2 1, HEPES 10, pH 7.4 with NaOH. Chloride-Free Bath Solution: Chloride Salts in Bath Solution #1 are Substituted with Gluconate Salts.
NIH3T3 mouse fibroblasts stably expressing ΔF508-CFTR are used for optical measurements of membrane potential. The cells are maintained at 37° C. in 5% CO2 and 90% humidity in Dulbecco's modified Eagle's medium supplemented with 2 mM glutamine, 10% fetal bovine serum, 1×NEAA, β-ME, 1× pen/strep, and 25 mM HEPES in 175 cm^2 culture flasks. For all optical assays, the cells were seeded at ˜20,000/well in 384-well matrigel-coated plates and cultured for 2 hrs at 37° C. before culturing at 27° C. for 24 hrs. for the potentiator assay. For the correction assays, the cells are cultured at 27° C. or 37° C. with and without compounds for 16-24 hours.

T1 sequence (P13569 with tags, fused parts or gaps DEL508-508): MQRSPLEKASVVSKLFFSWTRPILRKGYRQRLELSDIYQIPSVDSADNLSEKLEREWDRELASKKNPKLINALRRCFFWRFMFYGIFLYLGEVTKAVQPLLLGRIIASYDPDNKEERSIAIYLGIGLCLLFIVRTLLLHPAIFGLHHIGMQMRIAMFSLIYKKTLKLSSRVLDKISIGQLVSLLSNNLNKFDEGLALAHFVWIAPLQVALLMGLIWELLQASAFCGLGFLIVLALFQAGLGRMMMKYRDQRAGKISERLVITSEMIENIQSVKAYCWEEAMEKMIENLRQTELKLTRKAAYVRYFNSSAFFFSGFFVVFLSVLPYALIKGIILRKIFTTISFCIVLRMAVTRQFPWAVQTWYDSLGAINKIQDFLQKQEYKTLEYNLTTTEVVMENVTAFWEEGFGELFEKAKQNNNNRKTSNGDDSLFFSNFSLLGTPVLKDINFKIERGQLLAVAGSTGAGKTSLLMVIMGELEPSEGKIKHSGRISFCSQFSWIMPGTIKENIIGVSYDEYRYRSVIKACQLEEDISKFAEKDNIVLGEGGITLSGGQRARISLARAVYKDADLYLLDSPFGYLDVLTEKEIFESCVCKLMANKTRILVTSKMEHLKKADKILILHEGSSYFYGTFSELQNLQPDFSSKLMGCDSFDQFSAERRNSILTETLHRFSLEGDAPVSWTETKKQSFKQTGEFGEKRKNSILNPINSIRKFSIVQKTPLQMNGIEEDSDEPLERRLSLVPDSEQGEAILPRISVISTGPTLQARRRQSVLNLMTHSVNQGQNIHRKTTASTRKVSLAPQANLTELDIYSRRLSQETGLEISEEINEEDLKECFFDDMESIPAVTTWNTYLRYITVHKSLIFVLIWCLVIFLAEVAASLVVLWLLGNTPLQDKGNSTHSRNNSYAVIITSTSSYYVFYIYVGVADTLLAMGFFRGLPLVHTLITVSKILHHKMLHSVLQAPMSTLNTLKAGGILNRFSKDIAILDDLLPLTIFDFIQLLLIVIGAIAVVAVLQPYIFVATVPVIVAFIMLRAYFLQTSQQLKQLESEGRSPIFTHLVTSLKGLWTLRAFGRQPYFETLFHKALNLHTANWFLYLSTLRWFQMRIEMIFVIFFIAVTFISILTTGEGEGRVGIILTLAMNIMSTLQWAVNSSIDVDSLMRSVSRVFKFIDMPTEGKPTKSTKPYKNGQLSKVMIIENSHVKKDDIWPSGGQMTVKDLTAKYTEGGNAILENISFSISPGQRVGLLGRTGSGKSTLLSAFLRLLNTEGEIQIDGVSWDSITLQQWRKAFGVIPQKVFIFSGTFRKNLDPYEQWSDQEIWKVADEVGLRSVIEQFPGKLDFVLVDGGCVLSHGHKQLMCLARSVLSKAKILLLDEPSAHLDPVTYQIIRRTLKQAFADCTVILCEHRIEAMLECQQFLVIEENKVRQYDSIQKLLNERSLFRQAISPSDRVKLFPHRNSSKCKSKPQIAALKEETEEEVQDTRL

As for `O=C(Nc1ccc(N2[C@@H]3CC[C@H]2[C@H](O)C3)cc1C(F)(F)F)c1c[nH]c2cccc(C(F)(F)F)c2c1=O` (relative stereo) [Compound 1b], the Emax – broadly, the greatest response seen or fitted, relative to the assay's reference – is more than 100% and the EC50 (usually the concentration at which the effect is half-maximal) was less than 2000 nM.
On the same counts, the results for `O=C(Nc1ccc(N2C3CCC2[C@H](O)C3)cc1C(F)(F)F)c1c[nH]c2cccc(C(F)(F)F)c2c1=O` (stereo partly drawn) [Compound 1a] are 25 to 100% and less than 2000 nM.
Consider `O=C(Nc1ccc(N2C3CCC2CC3)cc1C(F)(F)F)c1c[nH]c2cccc(C(F)(F)F)c2c1=O` [Formula II, N-(4-(7-azabicyclo[2.2.1]heptan-7-yl)-2-(trifluoromethyl)phenyl)-4-oxo-5-(trifluoromethyl)-1,4-dihydroquinoline-3-carboxamide], for which the Emax was 25 to 100% and the EC50 was less than 2000 nM.
